# Reference: patent US10738028B2, “Spiro three-membered ring, spiro five-membered ring peptide deformylase inhibitor and use thereof in antibacteria and anti-tumor” (priority 2016, dated 2020)
# Legend:
# Assay type in all cases: cell-based
# [1] = system: HCT-116 colorectal cancer cell line; test: CCK-8 proliferation inhibition; details: Homo sapiens, HCT-116, 72 h, concentration of 30 μM; 72 hours; CCK-8; read-out: HCT116 inhibition rate/%
# In short: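 2000 cells/well, McCoy's 5A + 10% newborn bovine serum; overnight attach, 37° C./5% CO2. Cpd from DMSO stock diluted in medium, 72 h. Readout: CCK-8 (1:10). Ctrl 1‰ DMSO.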
# [2] = system: Enterococcus faecium (EFM); test: MIC, two-fold agar dilution (CLSI), clinical isolates; details: for Anti-bacterial activity (MIC), strain EFM 15-1: clinical isolate EFM 15-1; for Anti-bacterial activity (MIC), strain EFM 15-2: clinical isolate EFM 15-2; for Anti-bacterial activity (MIC), strain EFM 15-3: clinical isolate EFM 15-3; for Anti-bacterial activity (MIC), strain EFM 15-4: clinical isolate EFM 15-4; for Anti-bacterial activity (MIC), strain EFM 15-5: clinical isolate EFM 15-5; for Anti-bacterial activity (MIC), strain EFM 15-6: clinical isolate EFM 15-6
# In short: (§1)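 Susceptibility was tested using CLSI two-fold agar dilution against the strains examined.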
# [3] = system: methicillin-sensitive Staphylococcus aureus (MSSA); test: as above; details: for Anti-bacterial activity (MIC), strain MSSA 15-3: clinical isolate MSSA 15-3; for Anti-bacterial activity (MIC), strain MSSA 15-4: clinical isolate MSSA 15-4; for Anti-bacterial activity (MIC), strain MSSA 15-5: clinical isolate MSSA 15-5; for Anti-bacterial activity (MIC), strain MSSA 15-6: clinical isolate MSSA 15-6
# In short: as §1
# [4] = system: methicillin-resistant Staphylococcus epidermidis (MRSE); test: as above; details: for Anti-bacterial activity (MIC), strain MRSE 15-1: clinical isolate MRSE 15-1; for Anti-bacterial activity (MIC), strain MRSE 15-2: clinical isolate MRSE 15-2; for Anti-bacterial activity (MIC), strain MRSE 15-3: clinical isolate MRSE 15-3; for Anti-bacterial activity (MIC), strain MRSE 15-7: clinical isolate MRSE 15-7
# In short: as §1
# [5] = system: methicillin-resistant Staphylococcus aureus (MRSA); test: as above; details: for Anti-bacterial activity (MIC), strain MRSA 15-1: clinical isolate MRSA 15-1; for Anti-bacterial activity (MIC), strain MRSA 15-2: clinical isolate MRSA 15-2; for Anti-bacterial activity (MIC), strain MRSA 15-3: clinical isolate MRSA 15-3; for Anti-bacterial activity (MIC), strain MRSA 15-4: clinical isolate MRSA 15-4
# In short: as §1
# [6] = system: methicillin-sensitive Staphylococcus epidermidis (MSSE); test: as above; details: for Anti-bacterial activity (MIC), strain MSSE 15-3: clinical isolate MSSE 15-3; for Anti-bacterial activity (MIC), strain MSSE 15-4: clinical isolate MSSE 15-4; for Anti-bacterial activity (MIC), strain MSSE 15-5: clinical isolate MSSE 15-5; for Anti-bacterial activity (MIC), strain MSSE 15-6: clinical isolate MSSE 15-6
# In short: as §1
# [7] = system: Escherichia coli (including ESBLs, non-ESBLs); test: as above; details: for Anti-bacterial activity (MIC), strain ECO+ 15-1: clinical isolate ECO+ 15-1; for Anti-bacterial activity (MIC), strain ECO+ 15-2: clinical isolate ECO+ 15-2; for Anti-bacterial activity (MIC), strain ECO+ 15-3: clinical isolate ECO+ 15-3; for Anti-bacterial activity (MIC), strain ECO+ 15-4: clinical isolate ECO+ 15-4; for Anti-bacterial activity (MIC), strain ECO− 15-1: clinical isolate ECO− 15-1; for Anti-bacterial activity (MIC), strain ECO− 15-2: clinical isolate ECO− 15-2; for Anti-bacterial activity (MIC), strain ECO− 15-3: clinical isolate ECO− 15-3; for Anti-bacterial activity (MIC), strain ECO− 15-4: clinical isolate ECO− 15-4
# In short: as §1
# [8] = system: Enterococcus faecalis (EFA); test: as above; details: for Anti-bacterial activity (MIC), strain EFA 15-1: clinical isolate EFA 15-1; for Anti-bacterial activity (MIC), strain EFA 15-2: clinical isolate EFA 15-2; for Anti-bacterial activity (MIC), strain EFA 15-3: clinical isolate EFA 15-3; for Anti-bacterial activity (MIC), strain EFA 15-4: clinical isolate EFA 15-4; for Anti-bacterial activity (MIC), strain EFA 15-5: clinical isolate EFA 15-5; for Anti-bacterial activity (MIC), strain EFA 15-6: clinical isolate EFA 15-6; for Anti-bacterial activity (MIC), strain EFA 15-9: clinical isolate EFA 15-9
# In short: as §1
# [9] = system: Moraxella catarrhalis (BCA); test: as above; details: for Anti-bacterial activity (MIC), strain BCA 14-1: clinical isolate BCA 14-1; for Anti-bacterial activity (MIC), strain BCA 14-4: clinical isolate BCA 14-4; for Anti-bacterial activity (MIC), strain BCA 14-5: clinical isolate BCA 14-5; for Anti-bacterial activity (MIC), strain BCA 14-6: clinical isolate BCA 14-6; for Anti-bacterial activity (MIC), strain BCA 14-7: clinical isolate BCA 14-7; for Anti-bacterial activity (MIC), strain BCA 14-8: clinical isolate BCA 14-8; for Anti-bacterial activity (MIC), strain BCA 14-10: clinical isolate BCA 14-10
# In short: as §1
# [10] = system: Streptococcus pneoumoniae (SPN); test: as above; details: for Anti-bacterial activity (MIC), strain SPN 16-2: clinical isolate SPN 16-2; for Anti-bacterial activity (MIC), strain SPN 16-4: clinical isolate SPN 16-4
# In short: as §1
compound,measurement,setting,value
"CCCC[C@H](CC(=O)NO)C(=O)N1CC2(CC2)C[C@H]1C(=O)Nc1ccno1 [Example 54, (S)-5-((R)-2-(2-(hydroxyamino)-2-oxoethyl)hexanoyl)-N-(isoxazol-5-yl)-5-spiro[2.4]heptane-6-carboxamide]",inhibition at 30 µM,[1],8%
same,"Anti-bacterial activity (MIC), strain EFM 15-1",[2],> 32 µg/mL
same,"Anti-bacterial activity (MIC), strain EFM 15-2",[2],> 32 µg/mL
same,"Anti-bacterial activity (MIC), strain EFM 15-3",[2],> 32 µg/mL
same,"Anti-bacterial activity (MIC), strain EFM 15-4",[2],> 32 µg/mL
same,"Anti-bacterial activity (MIC), strain EFM 15-5",[2],2 µg/mL
same,"Anti-bacterial activity (MIC), strain EFM 15-6",[2],8 µg/mL
same,"Anti-bacterial activity (MIC), strain MSSA 15-3",[3],> 32 µg/mL
same,"Anti-bacterial activity (MIC), strain MSSA 15-4",[3],> 32 µg/mL
same,"Anti-bacterial activity (MIC), strain MSSA 15-5",[3],> 32 µg/mL
same,"Anti-bacterial activity (MIC), strain MSSA 15-6",[3],> 32 µg/mL
same,"Anti-bacterial activity (MIC), strain MRSE 15-1",[4],> 32 µg/mL
same,"Anti-bacterial activity (MIC), strain MRSE 15-2",[4],> 32 µg/mL
same,"Anti-bacterial activity (MIC), strain MRSE 15-3",[4],> 32 µg/mL
same,"Anti-bacterial activity (MIC), strain MRSE 15-7",[4],> 32 µg/mL
same,"Anti-bacterial activity (MIC), strain MRSA 15-1",[5],> 32 µg/mL
same,"Anti-bacterial activity (MIC), strain MRSA 15-2",[5],> 32 µg/mL
same,"Anti-bacterial activity (MIC), strain MRSA 15-3",[5],> 32 µg/mL
same,"Anti-bacterial activity (MIC), strain MRSA 15-4",[5],> 32 µg/mL
same,"Anti-bacterial activity (MIC), strain MSSE 15-3",[6],> 32 µg/mL
same,"Anti-bacterial activity (MIC), strain MSSE 15-4",[6],> 32 µg/mL
same,"Anti-bacterial activity (MIC), strain MSSE 15-5",[6],> 32 µg/mL
same,"Anti-bacterial activity (MIC), strain MSSE 15-6",[6],> 32 µg/mL
same,"Anti-bacterial activity (MIC), strain ECO+ 15-1",[7],> 32 µg/mL
same,"Anti-bacterial activity (MIC), strain ECO+ 15-2",[7],> 32 µg/mL
same,"Anti-bacterial activity (MIC), strain ECO+ 15-3",[7],> 32 µg/mL
same,"Anti-bacterial activity (MIC), strain ECO+ 15-4",[7],> 32 µg/mL
same,"Anti-bacterial activity (MIC), strain ECO− 15-1",[7],> 32 µg/mL
same,"Anti-bacterial activity (MIC), strain ECO− 15-2",[7],> 32 µg/mL
same,"Anti-bacterial activity (MIC), strain ECO− 15-3",[7],> 32 µg/mL
same,"Anti-bacterial activity (MIC), strain ECO− 15-4",[7],> 32 µg/mL
same,"Anti-bacterial activity (MIC), strain EFA 15-1",[8],> 32 µg/mL
same,"Anti-bacterial activity (MIC), strain EFA 15-2",[8],> 32 µg/mL
same,"Anti-bacterial activity (MIC), strain EFA 15-3",[8],> 32 µg/mL
same,"Anti-bacterial activity (MIC), strain EFA 15-4",[8],> 32 µg/mL
same,"Anti-bacterial activity (MIC), strain EFA 15-5",[8],> 32 µg/mL
same,"Anti-bacterial activity (MIC), strain EFA 15-6",[8],> 32 µg/mL
same,"Anti-bacterial activity (MIC), strain EFA 15-9",[8],32 µg/mL
same,"Anti-bacterial activity (MIC), strain BCA 14-1",[9],> 32 µg/mL
same,"Anti-bacterial activity (MIC), strain BCA 14-4",[9],> 32 µg/mL
same,"Anti-bacterial activity (MIC), strain BCA 14-5",[9],32 µg/mL
same,"Anti-bacterial activity (MIC), strain BCA 14-6",[9],> 32 µg/mL
same,"Anti-bacterial activity (MIC), strain BCA 14-7",[9],> 32 µg/mL
same,"Anti-bacterial activity (MIC), strain BCA 14-8",[9],> 32 µg/mL
same,"Anti-bacterial activity (MIC), strain BCA 14-10",[9],> 32 µg/mL
same,"Anti-bacterial activity (MIC), strain SPN 16-2",[10],4 µg/mL
same,"Anti-bacterial activity (MIC), strain SPN 16-4",[10],4 µg/mL
"CCCC[C@H](CC(=O)NO)C(=O)N1CC2(CC2)C[C@H]1C(=O)Nc1cc(C)on1 [Example 56, (S)-5-((R)-2-(2-(hydroxyamino)-2-oxoethyl)hexanoyl)-N-(5-methylisoxazol-3-yl)-5-spiro[2.4]heptane-6-carboxamide]",inhibition at 30 µM,[1],10%
same,"Anti-bacterial activity (MIC), strain EFM 15-1",[2],1 µg/mL
same,"Anti-bacterial activity (MIC), strain EFM 15-2",[2],4 µg/mL
same,"Anti-bacterial activity (MIC), strain EFM 15-3",[2],1 µg/mL
same,"Anti-bacterial activity (MIC), strain EFM 15-4",[2],4 µg/mL
same,"Anti-bacterial activity (MIC), strain EFM 15-5",[2],1 µg/mL
same,"Anti-bacterial activity (MIC), strain EFM 15-6",[2],4 µg/mL
same,"Anti-bacterial activity (MIC), strain MSSA 15-3",[3],0.25 µg/mL
same,"Anti-bacterial activity (MIC), strain MSSA 15-4",[3],0.25 µg/mL
same,"Anti-bacterial activity (MIC), strain MSSA 15-5",[3],0.125 µg/mL
same,"Anti-bacterial activity (MIC), strain MSSA 15-6",[3],0.25 µg/mL
same,"Anti-bacterial activity (MIC), strain MRSE 15-1",[4],0.125 µg/mL
same,"Anti-bacterial activity (MIC), strain MRSE 15-2",[4],2 µg/mL
same,"Anti-bacterial activity (MIC), strain MRSE 15-3",[4],0.25 µg/mL
same,"Anti-bacterial activity (MIC), strain MRSE 15-7",[4],0.5 µg/mL
same,"Anti-bacterial activity (MIC), strain MRSA 15-1",[5],0.25 µg/mL
same,"Anti-bacterial activity (MIC), strain MRSA 15-2",[5],2 µg/mL
same,"Anti-bacterial activity (MIC), strain MRSA 15-3",[5],0.5 µg/mL
same,"Anti-bacterial activity (MIC), strain MRSA 15-4",[5],2 µg/mL
same,"Anti-bacterial activity (MIC), strain MSSE 15-3",[6],0.25 µg/mL
same,"Anti-bacterial activity (MIC), strain MSSE 15-4",[6],0.06 µg/mL
same,"Anti-bacterial activity (MIC), strain MSSE 15-5",[6],0.06 µg/mL
same,"Anti-bacterial activity (MIC), strain MSSE 15-6",[6],0.06 µg/mL
same,"Anti-bacterial activity (MIC), strain ECO+ 15-1",[7],> 16 µg/mL
same,"Anti-bacterial activity (MIC), strain ECO+ 15-2",[7],> 16 µg/mL
same,"Anti-bacterial activity (MIC), strain ECO+ 15-3",[7],> 16 µg/mL
same,"Anti-bacterial activity (MIC), strain ECO+ 15-4",[7],> 16 µg/mL
same,"Anti-bacterial activity (MIC), strain ECO− 15-1",[7],> 16 µg/mL
same,"Anti-bacterial activity (MIC), strain ECO− 15-2",[7],> 16 µg/mL
same,"Anti-bacterial activity (MIC), strain ECO− 15-3",[7],> 16 µg/mL
same,"Anti-bacterial activity (MIC), strain ECO− 15-4",[7],> 16 µg/mL
same,"Anti-bacterial activity (MIC), strain EFA 15-1",[8],16 µg/mL
same,"Anti-bacterial activity (MIC), strain EFA 15-2",[8],16 µg/mL
same,"Anti-bacterial activity (MIC), strain EFA 15-3",[8],16 µg/mL
same,"Anti-bacterial activity (MIC), strain EFA 15-4",[8],16 µg/mL
same,"Anti-bacterial activity (MIC), strain EFA 15-5",[8],16 µg/mL
same,"Anti-bacterial activity (MIC), strain EFA 15-6",[8],16 µg/mL
same,"Anti-bacterial activity (MIC), strain EFA 15-9",[8],16 µg/mL
same,"Anti-bacterial activity (MIC), strain BCA 14-1",[9],4 µg/mL
same,"Anti-bacterial activity (MIC), strain BCA 14-4",[9],4 µg/mL
same,"Anti-bacterial activity (MIC), strain BCA 14-5",[9],1 µg/mL
same,"Anti-bacterial activity (MIC), strain BCA 14-6",[9],8 µg/mL
same,"Anti-bacterial activity (MIC), strain BCA 14-7",[9],2 µg/mL
same,"Anti-bacterial activity (MIC), strain BCA 14-8",[9],2 µg/mL
same,"Anti-bacterial activity (MIC), strain BCA 14-10",[9],2 µg/mL
same,"Anti-bacterial activity (MIC), strain SPN 16-2",[10],8 µg/mL
same,"Anti-bacterial activity (MIC), strain SPN 16-4",[10],1 µg/mL
